Consider twelve molecules from ChEMBL document CHEMBL1201862, “PubChem BioAssay data set” (2004).

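These data come from cells grown in 96-well plates and exposed to compound for 48 hours at five concentrations. GI50 is the concentration that inhibits growth by half.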 Active and inactive are the calls of the source. No stated cut-off is given here; in the data, active = GI50 up to about 1.1 µM and inactive = higher.

Test systems include SW-620; SNB-75; NCI-H460; HCT-15; SK-MEL-28; SNB-19; Malme-3M; NCI-H23; MDA-N; UACC-62; HCC 2998; BT-549; NCI-H522; PC-3; EKVX; SF-539; HL-60; SN12C; SR.
Experiment in all cases: NCI anticancer screen, dose series, 48 h

Consider `COC(=O)C1CCC(=S)N1C(C)=O` (centres undefined), for which the GI50 was > 100 µM (inactive) with SW-620; > 100 µM (inactive) with SNB-75; > 100 µM (inactive) in the experiment on NCI-H460; over 100 µM in the experiment with HCT-15; > 100 µM (inactive) in the experiment with SK-MEL-28; > 100 µM (inactive) in the experiment with SNB-19. In addition, the GI50 in the experiment on Malme-3M, in the experiment on NCI-H23, in the experiment with MDA-N, with UACC-62, with HCC 2998 and with BT-549 was > 100 µM (inactive) in each case. Also, the GI50 in the experiment on NCI-H522, with PC-3 and with EKVX was > 100 µM (inactive) in each case.

Take `O=C(O)C1OC1(c1cccc(Cl)c1)c1ccccc1Cl` (centres undefined): the GI50 is 20.7 µM (inactive) in the experiment on SW-620; 19.9 µM (inactive) in the experiment on SNB-75; 42.7 µM (inactive) with NCI-H460; 6.76 µM in the experiment on HCT-15; 22.1 µM (inactive) in the experiment on SK-MEL-28; 33.9 µM (inactive) with SNB-19. Besides, the GI50 was 19.7 µM (inactive) with Malme-3M; 25.9 µM (inactive) with SF-539; 20.8 µM (inactive) in the experiment with NCI-H23; 23.6 µM (inactive) with MDA-N; 14.8 µM (inactive) in the experiment on UACC-62; 25.9 µM (inactive) in the experiment with HCC 2998. Besides, the GI50 is 18.8 µM (inactive) in the experiment with BT-549; 17.2 µM (inactive) with HL-60; 24.5 µM (inactive) in the experiment with NCI-H522; 21.8 µM (inactive) in the experiment with PC-3; 25.4 µM (inactive) with EKVX; 23 µM (inactive) in the experiment on SN12C.

Consider `COC1C(O)=C2C(=O)OC(C)(O)/C=C/C=C\C=C/C=C/C(c3ccccc3)NC(=O)/C=C/C=C/C=C/C=C/C2(C)C1O` (centres undefined), for which the GI50 in the experiment on SW-620 was 0.00139 µM (active); in the experiment on SNB-75 it was 0.028 µM (active); in the experiment with NCI-H460, < 0.001 µM (active); in the experiment with HCT-15, under 0.001 µM; in the experiment on SK-MEL-28, 0.0461 µM (active); with SNB-19, 0.0258 µM (active). For the same molecule, the GI50 in the experiment on Malme-3M was 0.0101 µM (active); in the experiment on SF-539 it was 0.0179 µM (active); with NCI-H23 it was 0.0158 µM (active); with MDA-N it was 0.0275 µM (active); in the experiment with UACC-62, 0.114 µM (active); with HCC 2998 it was 0.0122 µM (active). Moreover, the GI50 in the experiment on BT-549 is 0.0128 µM (active); with HL-60, 0.00348 µM (active); with NCI-H522, < 0.001 µM (active); in the experiment on PC-3 it was 0.00339 µM (active); in the experiment with EKVX it was 0.0118 µM (active); in the experiment with SN12C it was 0.0142 µM (active).

Regarding `COCC1OCCN1C` (centres undefined), the GI50 in the experiment with SW-620 was > 100 µM (inactive); in the experiment with SNB-75 it was > 100 µM (inactive); in the experiment with NCI-H460, > 100 µM (inactive); in the experiment on HCT-15 it was over 100 µM; in the experiment on SNB-19, > 100 µM (inactive); in the experiment on SR, > 100 µM (inactive). Further, the GI50 in the experiment on Malme-3M, with SF-539, with NCI-H23, in the experiment with MDA-N, in the experiment on UACC-62 and with BT-549 was > 100 µM (inactive) each time. Further, the GI50 with NCI-H522, in the experiment with PC-3 and in the experiment on EKVX was > 100 µM (inactive) throughout.

For `COC(=O)c1ccccc1C1CN=NC12Cc1cc3c(cc1C2=O)CCC3` (centres undefined), the GI50 in the experiment on SW-620 was 67.6 µM (inactive); in the experiment on SNB-75, 61.4 µM (inactive); in the experiment on NCI-H460, 39.9 µM (inactive); in the experiment on HCT-15, over 100 µM; in the experiment on SK-MEL-28 it was > 100 µM (inactive); in the experiment on SNB-19 it was 57.5 µM (inactive). The GI50 with Malme-3M was 95.9 µM (inactive); in the experiment with SF-539, > 100 µM (inactive); in the experiment on NCI-H23 it was 33.3 µM (inactive); with MDA-N, 40.7 µM (inactive); in the experiment on UACC-62 it was 69.8 µM (inactive); in the experiment with HCC 2998, 47.1 µM (inactive). For the same molecule, the GI50 with BT-549 was > 100 µM (inactive); with HL-60, 21.4 µM (inactive); in the experiment on NCI-H522 it was 32.9 µM (inactive); in the experiment on PC-3, 45.5 µM (inactive); in the experiment with EKVX, 74.5 µM (inactive); in the experiment on SN12C, 92.9 µM (inactive).

`O=[N+]([O-])c1cc2c(cc1/C=N/n1c(CO)nc3ccccc31)OCO2`: the GI50 in the experiment on SW-620 was > 100 µM (inactive); in the experiment on SNB-75, > 100 µM (inactive); in the experiment with NCI-H460 it was > 100 µM (inactive); with HCT-15, over 100 µM; in the experiment on SK-MEL-28 it was > 100 µM (inactive); in the experiment with SNB-19, > 100 µM (inactive). The GI50 in the experiment with Malme-3M, in the experiment on SF-539, in the experiment on NCI-H23, in the experiment on MDA-N, with UACC-62 and with BT-549 was > 100 µM (inactive) throughout. Also, the GI50 in the experiment on HL-60, with PC-3, in the experiment on EKVX and with SN12C was > 100 µM (inactive) throughout.

For the molecule `Nc1[nH]c(=O)[nH]c(=O)c1Cc1cccc(Cl)c1`, the GI50 was 96.2 µM (inactive) with SW-620; 58.7 µM (inactive) in the experiment with SNB-75; 56.8 µM (inactive) in the experiment on NCI-H460; 84.9 µM in the experiment on HCT-15; > 100 µM (inactive) with SK-MEL-28; > 100 µM (inactive) in the experiment on SNB-19. Besides, the GI50 with Malme-3M was > 100 µM (inactive); in the experiment on SF-539, > 100 µM (inactive); in the experiment on NCI-H23 it was > 100 µM (inactive); in the experiment with MDA-N, 41 µM (inactive); in the experiment with UACC-62 it was 34.4 µM (inactive); in the experiment with HCC 2998 it was 56 µM (inactive). The GI50 in the experiment with BT-549 was 75.2 µM (inactive); with NCI-H522, 88.9 µM (inactive); in the experiment on PC-3, 52.7 µM (inactive); with EKVX, > 100 µM (inactive); with SN12C, > 100 µM (inactive).

For the molecule `O=C(NCCO)Nc1c(C(F)(F)F)cc(-c2ccccc2)[nH]c1=O`, the GI50 in the experiment with SW-620 was > 100 µM (inactive); with NCI-H460, > 100 µM (inactive); in the experiment on HCT-15, over 100 µM; with SK-MEL-28, > 100 µM (inactive); in the experiment on SNB-19, > 100 µM (inactive); in the experiment with NCI-H23, > 100 µM (inactive). Besides, the GI50 is > 100 µM (inactive) in the experiment with MDA-N; > 100 µM (inactive) in the experiment on UACC-62; > 100 µM (inactive) in the experiment with HCC 2998; > 100 µM (inactive) with BT-549; 19.8 µM (inactive) in the experiment with HL-60; > 100 µM (inactive) in the experiment on PC-3. The GI50 in the experiment on EKVX and in the experiment with SN12C was > 100 µM (inactive) each time.

For the molecule `CC(=O)N1CC(=O)N2C(=O)/C(=C/c3ccc(Cl)cc3)N=C12`, the GI50 with SW-620 is > 100 µM (inactive); in the experiment with SNB-75 it was > 100 µM (inactive); in the experiment with NCI-H460 it was > 100 µM (inactive); with HCT-15 it was over 100 µM; with SK-MEL-28, > 100 µM (inactive); in the experiment on SNB-19 it was > 100 µM (inactive). Besides, the GI50 in the experiment on Malme-3M, with SF-539, in the experiment on NCI-H23, in the experiment on MDA-N, in the experiment on UACC-62 and in the experiment on HCC 2998 was > 100 µM (inactive) each time. Moreover, the GI50 with BT-549 was > 100 µM (inactive); with HL-60 it was 27.7 µM (inactive); in the experiment on PC-3, > 100 µM (inactive); with EKVX, > 100 µM (inactive); with SN12C, > 100 µM (inactive).

`CCOC(=O)Nc1c(C#N)[n+]([O-])c2cc(Cl)c(Cl)cc2[n+]1[O-]`: the GI50 with SW-620 is 13.1 µM (inactive); with SNB-75, 15.4 µM (inactive); in the experiment with NCI-H460, 13.7 µM (inactive); in the experiment on HCT-15, 5.13 µM; in the experiment on SK-MEL-28 it was 14.6 µM (inactive); in the experiment with SNB-19, 21.7 µM (inactive). Moreover, the GI50 with SR was 4.09 µM (inactive); in the experiment with Malme-3M, 15.2 µM (inactive); with SF-539, 12.9 µM (inactive); with NCI-H23 it was 19.7 µM (inactive); with MDA-N, 16.1 µM (inactive); in the experiment on UACC-62 it was 10.7 µM (inactive). Besides, the results for the GI50 with BT-549, with PC-3 and with SN12C were 15.6 µM (inactive), 7.28 µM (inactive) and 16.4 µM (inactive), respectively.

For the molecule `O=C1CC2(CCC(O)(c3ccc(Cl)cc3)C(C(=O)c3ccc(Cl)cc3)C2)C(=O)c2ccccc2N1` (centres undefined), the GI50 is 27.4 µM (inactive) in the experiment with SW-620; 0.146 µM (active) in the experiment with SNB-75; 3.33 µM (inactive) in the experiment on NCI-H460; over 42.7 µM in the experiment with HCT-15; 4.53 µM (inactive) in the experiment with SK-MEL-28; 2.26 µM (inactive) with SNB-19. For the same molecule, the GI50 in the experiment with Malme-3M is > 28.1 µM (inactive); in the experiment with SF-539, 3.42 µM (inactive); with NCI-H23, 14.6 µM (inactive); in the experiment on MDA-N it was 15.2 µM (inactive); in the experiment with UACC-62 it was 14.8 µM (inactive); in the experiment with HCC 2998 it was 35.5 µM (inactive). Also, the GI50 with BT-549 was 19.7 µM (inactive); with HL-60, 11 µM (inactive); in the experiment on NCI-H522 it was 11.7 µM (inactive); in the experiment on PC-3 it was > 100 µM (inactive); in the experiment with EKVX, > 23.6 µM (inactive); with SN12C it was 5.68 µM (inactive).

For `Cn1c(=O)c2c(nc3n2CC(C(=O)O)N3)n(C)c1=O` (centres undefined), the GI50 is > 100 µM (inactive) in the experiment with SW-620; > 100 µM (inactive) in the experiment with SNB-75; > 100 µM (inactive) in the experiment on NCI-H460; over 100 µM in the experiment on HCT-15; > 100 µM (inactive) with SK-MEL-28; > 100 µM (inactive) in the experiment with SNB-19. Further, the GI50 with Malme-3M, in the experiment on SF-539, with NCI-H23, in the experiment on MDA-N, in the experiment with UACC-62 and with HCC 2998 was > 100 µM (inactive) in each case. Besides, the GI50 with BT-549, with HL-60, in the experiment with NCI-H522, in the experiment with PC-3, with EKVX and in the experiment on SN12C was > 100 µM (inactive) in each case.
